Assay: recombinant UMI read abundance after kanamycin selection (control-corrected) (log10(CPM+1)); higher = more efficient recombination; extreme values may be limits of the assay; sequences stand for … in AGTGCAGAGAAAATCGGCCAGTTTTCTCTGCCTGCAGTCCGCATGCCGTGGGACCCCTTGGGTTCTAACCTGTTGCCTAGATTTATGCAGCGGACTGCCTTTCTCCCAAAGTGATAAACCGG…AGGTTGGTTTCACT; site = the 11-nt donor
In short: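 After plating on IPTG (0.07 mM) plus kanamycin, or unselected, in two replicates, recombinant UMIs were PCR-amplified across the donor–target junction and sequenced. The cells were Escherichia coli co-electroporated with a UMI-tagged donor and donor-binding-loop pair library and a target plasmid with a fixed target and T7-inducible IS621 bridge recombinase. Values are log10(CPM+1), with CPM averaged over replicates and scaled by control-derived factors.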
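Note: IS621 bridge recombinase in Escherichia coli cells against a fixed T5 target plasmid.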

| Sequence | recombinant UMI read abundance (log10) |
| --- | --- |
| CACTCCTCATGGACCGGTTTTCCCGGTAATCCGTATTTGCC (site CACTCCTCTGA) | 0.906 |
| CACTCCTCATGGACCGGTTTTCCCGGTAATCCGTATTTGCC (site CACTCCTCTGC) | 0.0424 |
| CACTCCTCATGGACCGGTTTTCCCGGTAATCCGTATTTGCC (site CACTCCTCTGG) | 3.11 |
| CACTCCTCATGGACCGGTTTTCCCGGTAATCCGTATTTGCC (site CACTCCTCTGT) | 2.74 |
| CACTCCTCATGGACCGGTTTTCCCGGTAATCCGTATTTGCC (site CACTCCTCTTG) | 2.48 |
| CACTCCTCATGGACCGGTTTTCCCGGTAATCCGTATTTGCC (site CACTCGTCTGG) | 0 |
| CACTCCTCATGGACCGGTTTTCCCGGTAATCCGTATTTGCC (site CACTCTTCTGG) | 0 |
| CACTCCTCATGGACCGGTTTTCCCGGTAATCCGTATTTGCC (site CACTGCTCTGG) | 0.00619 |
| CACTCCTCATGGACCGGTTTTCCCGGTAATCCGTATTTGCC (site CACTTCTCTGG) | 0 |
| CACTCCTCATGGACCGGTTTTCCCGGTAATCCGTATTTGCC (site CAGTCCTCTGG) | 1.2 |
| CACTCCTCATGGACCGGTTTTCCCGGTAATCCGTATTTGCC (site CATTCCTCTGG) | 1.62 |
| CACTCCTCATGGACCGGTTTTCCCGGTAATCCGTATTTGCC (site CCCTCCTCTGG) | 0.97 |
| CACTCCTCATGGACCGGTTTTCCCGGTAATCCGTATTTGCC (site CGCTCCTCTGG) | 1.95 |
| CACTCCTCATGGACCGGTTTTCCCGGTAATCCGTATTTGCC (site CTCTCCTCTGG) | 2.29 |
| CACTCCTCATGGACCGGTTTTCCCGGTAATCCGTATTTGCC (site GACTCCTCTGG) | 0 |
| CACTCCTCATGGACCGGTTTTCCCGGTAATCCGTATTTGCC (site TACTCCTCTGG) | 1.39 |
| CACTCCTCATGGACCGGTTTTCCCGGTAATCCGTATTTGCG (site CACTCCTCTAG) | 1.11 |
| CACTCCTCATGGACCGGTTTTCCCGGTAATCCGTATTTGCG (site CACTCCTCTCG) | 1.71 |
| CACTCCTCATGGACCGGTTTTCCCGGTAATCCGTATTTGCG (site CACTCCTCTGG) | 0 |
| CACTCCTCATGGACCGGTTTTCCCGGTAATCCGTATTTGCG (site CACTCCTCTTG) | 2.29 |
| CACTCCTCATGGACCGGTTTTCCCGGTAATCCGTATTTGGC (site CACTCCTCTGA) | 0.526 |
| CACTCCTCATGGACCGGTTTTCCCGGTAATCCGTATTTGGC (site CACTCCTCTGC) | 2.75 |
| CACTCCTCATGGACCGGTTTTCCCGGTAATCCGTATTTGGC (site CACTCCTCTGG) | 0.943 |
| CACTCCTCATGGACCGGTTTTCCCGGTAATCCGTATTTGGC (site CACTCCTCTGT) | 2.45 |
| CACTGGGCATGGACCGGTTTTCCCGGTAATCCGTATTTGGA (site CACTAGGCTTC) | 0.812 |

| Sequence | recombinant UMI read abundance (log10) |
| --- | --- |
| CACTGGGCATGGACCGGTTTTCCCGGTAATCCGTATTTGGA (site CACTCGGCTTC) | 0.0182 |
| CACTGGGCATGGACCGGTTTTCCCGGTAATCCGTATTTGGA (site CACTGGGCTTC) | 1.12 |
| CACTGGGCATGGACCGGTTTTCCCGGTAATCCGTATTTGGA (site CACTTGGCTTC) | 0.0159 |
| CACTTAACATGGACCGGTTTTCCCGGTAATCCGTATTTGCC (site CACTTAACTGG) | 0.774 |
| CACTTCCCATGGACCGGTTTTCCCGGTAATCCGTATTTGCT (site CAATTCCCTAG) | 0 |
| CACTTCCCATGGACCGGTTTTCCCGGTAATCCGTATTTGCT (site CACTTCCCTAG) | 0.617 |
| CACTTCCCATGGACCGGTTTTCCCGGTAATCCGTATTTGCT (site CAGTTCCCTAG) | 0.521 |
| CACTTCCCATGGACCGGTTTTCCCGGTAATCCGTATTTGCT (site CATTTCCCTAG) | 0 |
| CACTTCTCATGGACCGGTTTTCCCGGTAATCCGTATTTGGG (site CACTTCTCTCC) | 0.00463 |
| CACTTCTCATGGACCGGTTTTCCCGGTAATCCGTATTTGGG (site CCCTTCTCTCC) | 0.00683 |
| CACTTCTCATGGACCGGTTTTCCCGGTAATCCGTATTTGGG (site CGCTTCTCTCC) | 0 |
| CACTTCTCATGGACCGGTTTTCCCGGTAATCCGTATTTGGG (site CTCTTCTCTCC) | 0 |
| CACTTGACATGGACCGGTTTTCCCGGTAATCCGTATTTGCT (site AACTTGACTAG) | 0 |
| CACTTGACATGGACCGGTTTTCCCGGTAATCCGTATTTGCT (site CACTTGACTAG) | 2.31 |
| CACTTGACATGGACCGGTTTTCCCGGTAATCCGTATTTGCT (site GACTTGACTAG) | 0 |
| CACTTGACATGGACCGGTTTTCCCGGTAATCCGTATTTGCT (site TACTTGACTAG) | 0.365 |
| CAGAAGCCATGGACCGGTTTTCCCGGTAATCCGTATTTGGT (site CAGAAGCCTAC) | 0.535 |
| CAGAAGCCATGGACCGGTTTTCCCGGTAATCCGTATTTGTT (site CAGAAGCCTAA) | 1.14 |
| CAGAAGCCATGGACCGGTTTTCCCGGTAATCCGTATTTGTT (site CGGAATCCTAA) | 0 |
| CAGAATACATGGACCGGTTTTCCCGGTAATCCGTATTTGTT (site CAGAATACTAA) | 2.12 |
| CAGAATACATGGACCGGTTTTCCCGGTAATCCGTATTTGTT (site CGGAATCCTAA) | 0 |
| CAGAATTCATGGACCGGTTTTCCCGGTAATCCGTATTTGGA (site CAGAATTCTTC) | 3.34 |
| CAGATACCATGGACCGGTTTTCCCGGTAATCCGTATTTGGA (site CAGATACCTTC) | 0.0326 |
| CAGCACGCATGGACCGGTTTTCCCGGTAATCCGTATTTGCA (site CAGCACGCTTG) | 2.58 |
| CAGCTCACATGGACCGGTTTTCCCGGTAATCCGTATTTGAT (site AAGCTCACTAT) | 0.444 |

| Sequence | recombinant UMI read abundance (log10) |
| --- | --- |
| CAGCTCACATGGACCGGTTTTCCCGGTAATCCGTATTTGAT (site CAGCTCACTAT) | 2.31 |
| CAGCTCACATGGACCGGTTTTCCCGGTAATCCGTATTTGAT (site GAGCTCACTAT) | 0.00621 |
| CAGCTCACATGGACCGGTTTTCCCGGTAATCCGTATTTGAT (site TAGCTCACTAT) | 0.404 |
| CAGCTCGCATGGACCGGTTTTCCCGGTAATCCGTATTTGAC (site CAGCTCGCTGT) | 2.55 |
| CAGGAAACATGGACCGGTTTTCCCGGTAATCCGTATTTGCA (site CAGGAAACTTG) | 1.79 |
| CAGGAAACATGGACCGGTTTTCCCGGTAATCCGTATTTGCA (site CCGGAAACTTG) | 0 |
| CAGGAAACATGGACCGGTTTTCCCGGTAATCCGTATTTGCA (site CGGGAAACTTG) | 0 |
| CAGGAAACATGGACCGGTTTTCCCGGTAATCCGTATTTGCA (site CTGGAAACTTG) | 2.49 |
| CAGGAATCATGGACCGGTTTTCCCGGTAATCCGTATTTGCA (site CAGGAATCTTG) | 3.17 |
| CAGGAATCATGGACCGGTTTTCCCGGTAATCCGTATTTGCG (site AAGGAATCTCG) | 1.51 |
| CAGGAATCATGGACCGGTTTTCCCGGTAATCCGTATTTGCG (site CAGGAATCTCG) | 3.26 |
| CAGGAATCATGGACCGGTTTTCCCGGTAATCCGTATTTGCG (site GAGGAATCTCG) | 0.395 |
| CAGGAATCATGGACCGGTTTTCCCGGTAATCCGTATTTGCG (site TAGGAATCTCG) | 2.69 |
| CAGGACTCATGGACCGGTTTTCCCGGTAATCCGTATTTGTT (site CAGGACTCTAA) | 2.96 |
| CAGGCATCATGGACCGGTTTTCCCGGTAATCCGTATTTGTC (site CAGGCATCTGA) | 2.76 |
| CAGGCGTCATGGACCGGTTTTCCCGGTAATCCGTATTTGGA (site CAGGCGTCTTC) | 1.89 |
| CAGGGCCCATGGACCGGTTTTCCCGGTAATCCGTATTTGTG (site CAGGGCCCTCA) | 0.282 |
| CAGGGTGCATGGACCGGTTTTCCCGGTAATCCGTATTTGGT (site CAGGGTGCTAC) | 1.49 |
| CAGTACACATGGACCGGTTTTCCCGGTAATCCGTATTTGCT (site CAGTACACTAG) | 2.43 |
| CAGTCAACATGGACCGGTTTTCCCGGTAATCCGTATTTGTG (site CAGTCAACTCA) | 0.0625 |
| CAGTCGACATGGACCGGTTTTCCCGGTAATCCGTATTTGCG (site CAGTCGACTCA) | 0 |
| CAGTCGACATGGACCGGTTTTCCCGGTAATCCGTATTTGCG (site CAGTCGACTCC) | 0 |
| CAGTCGACATGGACCGGTTTTCCCGGTAATCCGTATTTGCG (site CAGTCGACTCG) | 0.869 |
| CAGTCGACATGGACCGGTTTTCCCGGTAATCCGTATTTGCG (site CAGTCGACTCT) | 0.00924 |
| CAGTCGACATGGACCGGTTTTCCCGGTAATCCGTATTTGGC (site CAGTCGACTAC) | 0.105 |

Reference: the supplement of paper PMC11208160
